Results on 25 compounds are retold here after patent US20250066343A1, “NOVEL CANNAB[…] DERIVATIVE, PREPARATION METHOD THEREFOR, AND COMPOSITION COMPRISING SAME FOR IMPROVING COGNITIVE FUNCTION” (priority 2021, published 2025).

The target of experiment [1] is Acetylcholinesterase (AChE) (Homo sapiens, UniProt P22303). Kind of experiment: Acetylcholinesterase inhibitory efficacy (acetylthiocholine/DTNB absorbance assay). Type of experiment: biochemical. As for the experimental part: Acetylcholinesterase or butyrylcholinesterase was prepared at 50 mU/ml, 50 μl was added to a 96-well plate, mixed with the aliquoted compound, and left for 10 minutes. The substrate, acetylthiocoline 0.05 mg/mL or butyrylthiocoline 0.1 mg/ml, was prepared and 50 μl was added to a 96-well plate and left for 10 minutes. Dithionitrobenzoic acid (DTNB) was prepared at 0.3 mg/ml, then 50 μl was added to a 96-well plate and left for 10 minutes.

In experiment [2] the target is T1, Monoamine oxidase B (MAO-B) (Homo sapiens, UniProt P27338).
T1 sequence (P27338 1-520): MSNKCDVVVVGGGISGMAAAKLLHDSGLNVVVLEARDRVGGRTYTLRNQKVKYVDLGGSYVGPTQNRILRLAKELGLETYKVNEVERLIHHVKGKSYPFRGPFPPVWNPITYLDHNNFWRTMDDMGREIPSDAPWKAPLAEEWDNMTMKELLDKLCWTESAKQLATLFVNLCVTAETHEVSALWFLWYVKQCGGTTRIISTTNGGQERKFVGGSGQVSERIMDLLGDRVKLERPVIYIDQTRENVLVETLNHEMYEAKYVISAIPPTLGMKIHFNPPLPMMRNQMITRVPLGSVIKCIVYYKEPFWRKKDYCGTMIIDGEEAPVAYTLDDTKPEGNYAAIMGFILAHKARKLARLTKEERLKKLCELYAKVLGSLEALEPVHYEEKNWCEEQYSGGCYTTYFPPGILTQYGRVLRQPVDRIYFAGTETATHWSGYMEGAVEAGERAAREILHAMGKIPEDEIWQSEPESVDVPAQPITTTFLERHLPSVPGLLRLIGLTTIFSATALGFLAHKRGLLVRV
Kind of experiment: Monoamine oxidase B inhibitory efficacy (kynuramine fluorescence assay). Type of experiment: biochemical. Conditions: compound 0-200 μM; enzyme 2 mU/mL; kynuramine substrate; N.D. = Not Detected. As for the experimental part:
Samples were prepared by dilution with DMSO to give concentrations of 0, 2, 5, 10, 20, 50, 100, and 200 μM of the compound, and 5 μl was dispensed into a 96-well plate. 135 μl of potassium phosphate buffer (0.1 M, 7.4 pH) was dispensed into a 96-well plate. Monoamine oxidase B was prepared at 2 mU/mL, and 50 μl was added to the 96-well plate, mixed with the dispensed compound, and left for 20 minutes. The substrate, kynuramine solution, was prepared at 100 μM, then 10 μl was added to a 96-well plate and left for 10 min. The reaction was stopped by adding 75 μl of NaOH (2N). The enzyme activity was calculated by measuring the concentration of kynuramine degraded by the enzyme using a fluorometer under 310 nm (excitation)/380 nm (emission) conditions. For the fluorescence blank experiment, potassium phosphate buffer was added instead of monoamine oxidase B to correct the compound-induced fluorescence intensity values.

SMILES strings stand for the structures.

Acetylcholinesterase (AChE), sequence (P22303 32-614, species assumed): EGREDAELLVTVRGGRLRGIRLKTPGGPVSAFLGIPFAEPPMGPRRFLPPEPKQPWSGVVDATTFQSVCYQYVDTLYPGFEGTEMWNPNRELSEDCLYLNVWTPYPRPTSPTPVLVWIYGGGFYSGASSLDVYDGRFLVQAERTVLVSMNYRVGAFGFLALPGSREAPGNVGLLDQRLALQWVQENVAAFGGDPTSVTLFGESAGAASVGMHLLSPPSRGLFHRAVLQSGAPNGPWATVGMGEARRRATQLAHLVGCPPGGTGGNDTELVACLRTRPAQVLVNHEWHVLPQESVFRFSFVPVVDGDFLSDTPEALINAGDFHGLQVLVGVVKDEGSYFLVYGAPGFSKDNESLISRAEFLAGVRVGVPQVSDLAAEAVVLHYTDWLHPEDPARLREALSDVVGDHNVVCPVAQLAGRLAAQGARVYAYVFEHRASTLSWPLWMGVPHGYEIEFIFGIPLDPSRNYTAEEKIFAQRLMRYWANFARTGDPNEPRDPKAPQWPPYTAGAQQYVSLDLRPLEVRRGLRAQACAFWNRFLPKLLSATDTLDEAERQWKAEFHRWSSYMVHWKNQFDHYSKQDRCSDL

For orientation: IC50 means the point on the concentration scale where inhibition reaches its midpoint. High values mean lower potency, low ones higher potency. Compound `CCCCCc1cc2c(c(O)c1C(=O)Nc1ccc(C)cc1)C=CC(C)(CCC=C(C)C)O2` (centres unmarked) [Compound 4t, 5-hydroxy-2-methyl-2-(4-methylpent-3-en-1-yl)-7-pentyl-N-(p-tolyl)-2H-chromene-6-carboxamide] returned an IC50 in experiment [1] of 47.7 µM. `CCCCCc1cc2c(c(O)c1C(=O)NCc1cc(Br)cs1)C=CC(C)(CCC=C(C)C)O2` (centres unmarked) [Compound 4p, N-((4-bromothiophen-2-yl)methyl)-5-hydroxy-2-methyl-2-(4-methylpent-3-en-1-yl)-7-pentyl-2H-chromene-6-carboxamide] registered a concentration for half-maximal inhibition (IC50) in experiment [1] of 0.6 µM. The same measure, in the same setting: in the case of `CCCCCc1cc2c(c(O)c1C(=O)NC1CCCCC1)C=CC(C)(CCC=C(C)C)O2` (centres unmarked) [Compound 4f, N-cyclohexyl-5-hydroxy-2-methyl-2-(4-methylpent-3-en-1-yl)-7-pentyl-2H-chromene-6-carboxamide] it was 1.2 µM; in that of `CCCCCc1cc2c(c(O)c1C(=O)NCCCC)C=CC(C)(CCC=C(C)C)O2` (centres unmarked) [Compound 4d, N-butyl-5-hydroxy-2-methyl-2-(4-methylpent-3-en-1-yl)-7-pentyl-2H-chromene-6-carboxamide], 1 µM. In turn, `CCCCCc1cc2c(c(O)c1C(=O)NC1CCN(S(C)(=O)=O)CC1)C=CC(C)(CCC=C(C)C)O2` (centres unmarked) [Compound 4o, 5-hydroxy-2-methyl-2-(4-methylpent-3-en-1-yl)-N-(1-(methylsulfonyl)piperidin-4-yl)-7-pentyl-2H-chromene-6-carboxamide] registered a half-inhibitory concentration (IC50) in experiment [2] of 8.43 µM. As for `CCCCCCCCCNC(=O)c1c(CCCCC)cc2c(c1O)C=CC(C)(CCC=C(C)C)O2` (centres unmarked) [Compound 4g, 5-hydroxy-2-methyl-2-(4-methylpent-3-en-1-yl)-N-nonyl-7-pentyl-2H-chromene-6-carboxamide], the IC50 amounted to 0.5 µM in experiment [1] and 111 µM in experiment [2]. The matching figures for `CCCCCc1cc2c(c(O)c1C(=O)NC/C=C(\C)CCC=C(C)C)C=CC(C)(CCC=C(C)C)O2` (centres unmarked) [Compound 4k, (E)-N-(3,7-dimethylocta-2,6-dien-1-yl)-5-hydroxy-2-methyl-2-(4-methylpent-3-en-1-yl)-7-pentyl-2H-chromene-6-carboxamide]: 1.3 µM and 59.3 µM. The matching figures for `CCCCCc1cc2c(c(O)c1C(=O)NC1CCOCC1)C=CC(C)(CCC=C(C)C)O2` (centres unmarked) [Compound 4af, 5-hydroxy-2-methyl-2-(4-methylpent-3-en-1-yl)-7-pentyl-N-(tetrahydro-2H-pyran-4-yl)-2H-chromene-6-carboxamide]: 46.1 µM and 194 µM. As for `CCCCCc1cc2c(c(O)c1C(=O)NC(C)C)C=CC(C)(CCC=C(C)C)O2` (centres unmarked) [Compound 4a, 5-hydroxy-N-isopropyl-2-methyl-2-(4-methylpent-3-en-1-yl)-7-pentyl-2H-chromene-6-carboxamide], half-maximal inhibition in experiment [1] (IC50) was put at 1.3 µM. `CCCCCc1cc2c(c(O)c1C(=O)NCC(CC)CCCC)C=CC(C)(CCC=C(C)C)O2` (centres unmarked) [Compound 4j, N-(2-ethylhexyl)-5-hydroxy-2-methyl-2-(4-methylpent-3-en-1-yl)-7-pentyl-2H-chromene-6-carboxamide]: the results for the concentration for half-maximal inhibition (IC50) in experiment [1] and in experiment [2] were 1.3 µM and 43.3 µM, respectively. For the compound `CCCCCCCCCCCCNC(=O)c1c(CCCCC)cc2c(c1O)C=CC(C)(CCC=C(C)C)O2` (centres unmarked) [Compound 4h, N-dodecyl-5-hydroxy-2-methyl-2-(4-methylpent-3-en-1-yl)-7-pentyl-2H-chromene-6-carboxamide], the IC50 in experiment [1] is 2.3 µM. On the same count and under the same terms, in the case of `CCCCCc1cc2c(c(O)c1C(=O)NC(C)CC)C=CC(C)(CCC=C(C)C)O2` (centres unmarked) [Compound 4v, N-(sec-butyl)-5-hydroxy-2-methyl-2-(4-methylpent-3-en-1-yl)-7-pentyl-2H-chromene-6-carboxamide] it was 6.6 µM. `CCCCCc1cc2c(c(O)c1C(=O)N[C@H]1CCCN(C(=O)OC(C)(C)C)C1)C=CC(C)(CCC=C(C)C)O2` (stereo partly drawn) [Compound 4s, tert-butyl(3S)-3-(5-hydroxy-2-methyl-2-(4-methylpent-3-en-1-yl)-7-pentyl-2H-chromene-6-carboxamido)piperidine-1-carboxylate]: the concentration for half-maximal inhibition (IC50) in experiment [1] came to 52.2 µM; in experiment [2], 15.5 µM. `CCCCCc1cc2c(c(O)c1C(=O)NC1CCCCCC1)C=CC(C)(CCC=C(C)C)O2` (centres unmarked) [Compound 4ab, N-cycloheptyl-5-hydroxy-2-methyl-2(4-methylpent-3en-1-yl)-7-pentyl-2H-chromene-6-carboxamide] gave a half-inhibitory concentration (IC50) in experiment [1] of 2.6 µM.

Regarding `CCCCCc1cc2c(c(O)c1C(=O)N1CCc3ccccc3C1)C=CC(C)(CCC=C(C)C)O2` (centres unmarked) [Compound 4ac, (3,4-dihydroisoquinolin-2(1H)-yl)(5-hydroxy-2-methyl-2-(4-methylpent-3-en-1-yl)-7-pentyl-2H-chromen-6-yl)methanone], the IC50 in experiment [1] stood at 2.1 µM; in experiment [2], 137 µM.

In turn, `CCCCCc1cc2c(c(O)c1C(=O)NCCS)C=CC(C)(CCC=C(C)C)O2` (centres unmarked) [Compound 4y, 5-hydroxy-N-(2-mercaptoethyl)-2-methyl-2-(4-methylpent-3-en-1-yl)-7-pentyl-2H-chromene-6-carboxamide] displayed an IC50 in experiment [1] of 6.2 µM.

In the case of `C=CCCCCCCCCCNC(=O)c1c(CCCCC)cc2c(c1O)C=CC(C)(CCC=C(C)C)O2` (centres unmarked) [Compound 4i, 5-hydroxy-2-methyl-2-(4-methylpent-3-en-1-yl)-7-pentyl-N-(undec-10-en-1-1)-2H-chromene-6-carboxamide], the IC50 in experiment [1] was determined as 0.3 µM; in experiment [2] it was 66.8 µM. `CCCCCc1cc2c(c(O)c1C(=O)Nc1ccc(Br)cc1)C=CC(C)(CCC=C(C)C)O2` (centres unmarked) [Compound 4ad, N-(4-bromophenyl)-5-hydroxy-2-methyl-2-(4-methylpent-3-en-1-yl)-7-pentyl-2H-chromene-6-carboxamide]: the IC50 is less than 0.5 µM in experiment [1] and 12 µM in experiment [2]. The corresponding values for `CCCCCc1cc2c(c(O)c1C(=O)N(C)C1CCCC1)C=CC(C)(CCC=C(C)C)O2` (centres unmarked) [Compound 4ag, N-cyclopentyl-5-hydroxy-N,2-dimethyl-2-(4-methylpent-3-en-1-yl)-7-pentyl-2H-chromene-6-carboxamide] are 47.7 µM and 14.4 µM. The matching figures for `CCCCCc1cc2c(c(O)c1C(=O)Nc1ccc(-c3ccc(F)cc3)cc1)C=CC(C)(CCC=C(C)C)O2` (centres unmarked) [Compound 4w, N-(4′-fluoro-[1,1′-biphenyl]-4-yl)-5-hydroxy-2-methyl-2-(4-methylpent-3-en-1-yl)-7-pentyl-2H-chromene-6-carboxamide]: 13.7 µM and 7.1 µM. Take `CCCCCc1cc2c(c(O)c1C(=O)N1CCS(=O)(=O)CC1)C=CC(C)(CCC=C(C)C)O2` (centres unmarked) [Compound 4l, (1,1-dioxidothiomorpholino)(5-hydroxy-2-methyl-2-(4-methylpent-3-en-1-yl)-7-pentyl-2H-chromen-6-yl)methanone]: the IC50 in experiment [2] was found to be 162 µM. For `C#CCNC(=O)c1c(CCCCC)cc2c(c1O)C=CC(C)(CCC=C(C)C)O2` (centres unmarked) [Compound 4m, 5-hydroxy-2-methyl-2-(4-methylpent-3-en-1-yl)-7-pentyl-N-(prop-2-yn-1-yl)-2H-chromene-6-carboxamide], the values for the concentration for half-maximal inhibition (IC50) in experiment [1] and in experiment [2] were 3.6 µM and 79.7 µM, respectively. The matching figures for `CCCCCc1cc2c(c(O)c1C(=O)Nc1ncc(C)s1)C=CC(C)(CCC=C(C)C)O2` (centres unmarked) [Compound 4r, 5-hydroxy-2-methyl-2-(4-methylpent-3-en-1-yl)-N-(5-methylthiazol-2-yl)-7-pentyl-2H-chromene-6-carboxamide]: 1.1 µM and 19.1 µM. On to `CCCCCc1cc2c(c(O)c1C(=O)NC1CC1)C=CC(C)(CCC=C(C)C)O2` (centres unmarked) [Compound 4c, N-cyclopropyl-5-hydroxy-2-methyl-2-(4-methylpent-3-en-1-yl)-7-pentyl-2H-chromene-6-carboxamide], for which, in experiment [1], the IC50 is 4.3 µM. In the case of `CCCCCc1cc2c(c(O)c1C(=O)NCCCc1ccccc1)C=CC(C)(CCC=C(C)C)O2` (centres unmarked) [Compound 4n, 5-hydroxy-2-methyl-2-(4-methylpent-3-en-1-yl)-7-pentyl-N--(3phenylpropyl)-2H-chromene-6-carboxamide], the figures for the IC50 in experiment [1] and in experiment [2] were 1.2 µM and 19 µM, respectively.
